Literature values, collected in article PMC6912862 (ACS Medicinal Chemistry Letters, 2019).
Values joined by “and” are separate entries in the source; they are usually repeats but may differ in a detail not shown here. Equal values may be shown once.

How the values were obtained:
HeLa cells = conditions: cisplatin comparison
HeLa xenograft = conditions: same conditions (2.0 mg/kg), p < 0.05

## N.N.[Cl][Pt][Cl] [cisplatin, cis-[PtCl2(NH3)2]]
HeLa cells
  Cell accumulation of Pt: 4.11 ± 0.59 (nmol of Pt)/10^6 cells
HeLa xenograft
  Inhibition of tumor growth (IR), cisplatin-treated groups: 35.2% and 35.2 ± 5.8%
